Assay results as given in patent publication US12686657B2, “Anti-inflammatory carboxamide derivatives” (BIOMEDCODE HELLAS SA, priority 2021, dated 2026).
Like-named read-outs stand apart in the source and are kept apart here.

System: hTNF-activated wt SFs
Assay: CCL5 and CCL20 ELISA on hTNF-activated wild type synovial fibroblasts
Type: cell-based, mice
Text: Primary SFs were derived from a) human TNF transgenic (hTNFTg) mice (Keffer et al., 1991) as well as from b) CBA/C57BL6 wild type mice.
By testing the compounds in a) and b) we accessed their effect on the activated SFs phenotype caused by both the endogenous hTNF upregulation and the exogenous hTNF administration. In this way it was confirm the ability of the compounds of the invention to act in the TNF pathway directly downstream of TNF.
SFs were isolated as previously described by Armaka et al., 2009, from the ankle joints of hTNFtg or CBA/C57BL6 wild type (wt) littermates. Briefly, ankle joints were digested with Collagenase IV (Sigma Aldrich, C5138) for 45 minutes at a 37° C. shaking waterbath and after 5 days in culture at 37° C. and 5% CO2, a depletion of CD45+ lineage cells was performed using a Biotin anti-mouse CD45 Antibody (Biolegend, 103104) and Dynabeads™ Biotin Binder (ThermoFisher 11047), according to the manufacturer's protocol. After 10 days in culture, SFs were seeded overnight (O/N) at a concentration of 2×10^4 cells/well in a 96 well plate in 1×DMEM, supplemented with 100 U/ml Penicillin Streptomycin (P/S) and 10% Fetal Bovine Serum (FBS). The next day the cells were synchronized by starvation that included their O/N plating in low serum medium (0.5% FBS). Following the O/N starvation, the hTNFg and the WT SFs were treated with different concentrations of the experimental compounds. The SFs were at the same time activated with 10 ng/ml hTNF (Peprotech, 300-01A). 48 h following the treatment the cell culture supernatants were collected and analyzed by ELISA (R&S Systems, Duoset, DY478 and DY760) according to the manufacturer's protocol, for the detection of CCL5/Rantes and CCL20/Mip3, two known inflammatory chemokines. The IC50 values were determined as the concentration of the compounds required to reduce the levels of secreted CCL5 and CCL20 by 50%.
In order to determine the efficiency of the compounds of the invention, the same protocol was repeated with some minor modifications. Mainly, the concentration of hTNF was 10-fold reduced, i.e., adjusted to 1 ng/ml, and the SFs were seeded overnight at a concentration of 10^4 cells/well.
Table 7 summarizes the reduction of CCL5 and CCL20 levels achieved with the test compounds of the invention. Data are presented as percentages of the chemokine levels detected in treated cells compared to 100% levels of the chemokines detected in the untreated cells.
Table 8 summarizes the values of IC50 and toxicity for the test compounds of the invention. Dose response curves regarding the WT SFs were produced with 10 ng/ml hTNF stimulation for all compounds, with the exception of the compounds E and F, where WT cells were induced using hTNF at 1 ng/ml: […]

[1] = 1 ng/mL hTNF, compound 10 μM, 48 h
[2] = 1 ng/mL hTNF, compound 50 μM, 48 h
[3] = 10 ng/mL hTNF, compound 10 μM, 48 h
[4] = 10 ng/mL hTNF, compound 50 μM, 48 h
[5] = Mus musculus, Fibroblast, 10 ng/ml hTNF stimulation, read-out: IC50 (μM) CCL5 WT
[6] = Mus musculus, Fibroblast, 10 ng/ml hTNF stimulation, read-out: IC50 (μM) CCL20 WT
[7] = 1 ng/mL hTNF, compound 25 μM, 48 h
[8] = 10 ng/mL hTNF, compound 25 μM, 48 h
[9] = Mus musculus, Fibroblast, hTNF at 1 ng/ml, read-out: IC50 (μM) CCL5 WT
[10] = Mus musculus, Fibroblast, hTNF at 1 ng/ml, read-out: IC50 (μM) CCL20 WT

COc1cc(N)c(Cl)cc1C(=O)NCC1(c2ccc(Cl)cc2)CCCCC1 [Compound 51, 4-amino-5-chloro-N-((1-(4-chlorophenyl)cyclohexyl)methyl)-2-methoxybenzamide]
CCL5 WT, percentage of level in untreated cells [1]: 54% | CCL20 WT, percentage of level in untreated cells [1]: 63% | CCL5 WT, percentage of level in untreated cells [2]: 20% | CCL20 WT, percentage of level in untreated cells [2]: 35% | CCL5 WT, percentage of level in untreated cells [3]: 67% | CCL20 WT, percentage of level in untreated cells [3]: 14% | CCL5 WT, percentage of level in untreated cells [4]: 39% | CCL20 WT, percentage of level in untreated cells [4]: 5% | IC50 [5]: 10.4 µM | IC50 [6]: 3 µM

COc1cc(N)c(Cl)cc1C(=O)NCC1(c2ccc(Cl)cc2)CCCCCC1 [Compound 52, 4-amino-5-chloro-N-((1-(4-chlorophenyl)cycloheptyl)methyl)-2-methoxybenzamide]
CCL5 WT, percentage of level in untreated cells [1]: 48% | CCL20 WT, percentage of level in untreated cells [1]: 45% | CCL5 WT, percentage of level in untreated cells [2]: 22% | CCL5 WT, percentage of level in untreated cells [3]: 27% | CCL20 WT, percentage of level in untreated cells [3]: 15% | CCL5 WT, percentage of level in untreated cells [4]: 14% | activity at 50 µM (Mus musculus, Fibroblast, 48 h, 1 ng/mL hTNF, compound 50 μM, 48 h, read-out: CCL20 WT, percentage of level in untreated cells): 17% | IC50 [5]: 1.4 µM | IC50 [6]: 1.5 µM

COc1cc(N)c(Cl)cc1C(=O)NCC1(Nc2ccc(Cl)cc2)CCCCCC1 [Compound 53, 4-amino-5-chloro-N-((1-((4-chlorophenyl)amino)cycloheptyl)methyl)-2-methoxybenzamide]
CCL5 WT, percentage of level in untreated cells [1]: 16% | CCL20 WT, percentage of level in untreated cells [1]: 26% | CCL5 WT, percentage of level in untreated cells [2]: 8% | CCL20 WT, percentage of level in untreated cells [2]: 9% | CCL5 WT, percentage of level in untreated cells [3]: 35% | CCL20 WT, percentage of level in untreated cells [3]: 15% | CCL5 WT, percentage of level in untreated cells [4]: 26% | CCL20 WT, percentage of level in untreated cells [4]: 8% | IC50 [5]: 2.9 µM | IC50 [6]: 2.3 µM

COc1cc(N)c(Cl)cc1C(=O)NCC1(Nc2ccc(F)cc2Cl)CCCCCC1 [E, 4-amino-5-chloro-N-((1-((2-chloro-4-fluorophenyl)amino)cycloheptyl)methyl)-2-methoxybenzamide]
CCL5 WT, percentage of level in untreated cells [1]: 0% | CCL20 WT, percentage of level in untreated cells [1]: 2% | CCL5 WT, percentage of level in untreated cells [7]: 0% | CCL20 WT, percentage of level in untreated cells [7]: 3% | CCL5 WT, percentage of level in untreated cells [3]: 13% | CCL20 WT, percentage of level in untreated cells [3]: 5% | CCL5 WT, percentage of level in untreated cells [8]: 11% | CCL20 WT, percentage of level in untreated cells [8]: 2% | IC50 [9]: 0.59 µM | IC50 [10]: 0.167 µM

COc1cc(N)c(Cl)cc1C(=O)NCC1(Nc2cccc(OC(F)(F)F)c2)CCCCCC1 [F, 4-amino-5-chloro-2-methoxy-N-((1-((3-(trifluoromethoxy)phenyl)amino)cycloheptyl)methyl)benzamide]
CCL5 WT, percentage of level in untreated cells [1]: 0% | CCL5 WT, percentage of level in untreated cells [7]: 0% | CCL20 WT, percentage of level in untreated cells [7]: 7% | CCL5 WT, percentage of level in untreated cells [3]: 12% | CCL5 WT, percentage of level in untreated cells [8]: 9% | CCL20 WT, percentage of level in untreated cells [8]: 10% | IC50 [9]: 0.09 µM | IC50 [10]: 0.129 µM
